Read-outs that look alike come from different tables or passages of the source.
Target: CYP3A4 (Homo sapiens, UniProt P08684)
Experiment: inhibition of testosterone metabolism in Caco-2/TC7 cells (HPLC)
Format: cell-based
[1] = read-out: % inhibition at 10 μM

Sequence of CYP3A4 (P08684 2-503): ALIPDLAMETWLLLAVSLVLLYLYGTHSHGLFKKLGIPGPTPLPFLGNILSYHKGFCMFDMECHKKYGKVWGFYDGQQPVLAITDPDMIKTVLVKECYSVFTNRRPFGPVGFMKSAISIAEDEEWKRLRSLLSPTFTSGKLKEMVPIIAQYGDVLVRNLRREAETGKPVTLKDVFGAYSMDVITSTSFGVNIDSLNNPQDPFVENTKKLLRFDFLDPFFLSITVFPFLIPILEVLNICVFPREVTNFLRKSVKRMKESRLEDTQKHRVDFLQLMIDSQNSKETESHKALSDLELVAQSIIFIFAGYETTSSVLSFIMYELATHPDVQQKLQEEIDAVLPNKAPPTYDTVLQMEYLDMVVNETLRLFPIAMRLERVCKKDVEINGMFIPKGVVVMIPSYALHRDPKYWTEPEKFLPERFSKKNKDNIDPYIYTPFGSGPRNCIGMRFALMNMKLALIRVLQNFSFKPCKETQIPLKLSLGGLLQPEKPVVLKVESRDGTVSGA

Row | Compound | inhibition at 10 µM [1] [%] | inhibition at 10 µM [%]
1 | CC(=O)Oc1ccc(/C=C/c2cc(O)cc(OC(C)=O)c2)cc1 [DAR, 3,4′-acetoxy-5-hydroxy-stilbene] | 45 | –
2 | CC(=O)Oc1ccc(/C=C/c2cc(O)cc(O)c2)cc1 [MAR, 4′-acetoxy-3,5-hydroxy-stilbene] | 24 | –
3 | CC(=O)Oc1ccc(/C=C/c2cc(OC(C)=O)cc(OC(C)=O)c2)cc1 [TAR, 3,4′,5-acetoxystilbene] | 10 | –
4 | CC(=O)N1CCN(c2ccc(OC[C@H]3COC(Cn4ccnc4)(c4ccc(Cl)cc4Cl)O3)cc2)CC1 (some centres unmarked) [ketoconazole, reference compound] | – | ~80
5 | Oc1ccc(/C=C/c2cc(O)cc(O)c2)cc1 [resveratrol, trans-3,4′,5-trihydroxystilbene] | > 80 | –
